Target: T1, human fascin 1 (Homo sapiens, UniProt Q16658)
T1 construct: GST (N, cleaved yes); made in house; host or cells: Escherichia coli BL21/DE3 (pGEX4T-fascin 1 plasmid)
Experiment: Fascin inhibition (actin bundling) assay, image-based
Format: biochemical
Conditions: in the presence of 50 μm of the compound relative to bundle activity when the compound was not present; read-out: Inhibition (percentage reduction of bundle activity)
Description: Recombinant human fascin 1 was expressed as a GST fusion protein in BL21 Escherichia coli. One liter of 2YT medium with ampicillin was inoculated overnight with 3 mL of BL21/DE3 culture transformed with pGEX4T-fascin 1 plasmid and grown at 37° C. until attenuance at 600 nm (D600) reached about 0.8. The culture was then transferred to 18° C. and induced by the addition of 0.1 mM isopropyl β-d-thiogalactoside (IPTG) for 12 h. Bacteria were harvested by centrifugation at 5,000 r.p.m. for 10 min. The pellets were suspended in 30 mL of PBS supplemented with 0.2 mM PMSF, 1 mM DTT, 1% (v/v) Triton X-100 and 1 mM EDTA. After sonication, the suspension was centrifuged at 15,000 r.p.m. for 30 min to remove the cell debris. The supernatant was then incubated for 2 h with 4 mL of glutathione beads (Sigma) at 4° C. After extensive washing with PBS, the beads were resuspended in 10 mL of thrombin cleavage buffer (20 mM Tris-HCl pH 8.0, 150 mM NaCl, 2 mM CaCl2, 1 mM DTT). Fascin was released from the beads by incubation overnight with 40-100 U of thrombin at 4° C. After centrifugation, 0.2 mM PMSF was added to the supernatant to inactivate the remnant thrombin activity. The fascin protein was further concentrated with a Centricon® (Boca Raton, Fla.) filter to about 50 mg/mL.
Representative compounds described herein were tested for fascin inhibition activity. Purified fascin protein (15 μL of 0.5 μM) in buffer (100 mM KCl, 20 mM Tris/HCl, pH 7.5, 2 mM MgCl2) was added into each well of a clear 384-well flat-bottom plate (Corning) using Thermo Multidrop Combi (Fisher). Compound solutions (5 mM stock, 180 nL) were pin transferred from stock 384-well plates into the 384-well assay plates and incubated for 30 min. Then 15 μL of 0.5 μM polymerized actin (in 100 mM KCl, 20 mM Tris/HCl, pH 7.5, 2 mM MgCl2, 1 mM DTT, 1 mM ATP) (Cytoskeleton Inc.) was added, resulting in 30 μM final concentration for chemical compounds. […] Mixed solution (25 μL) was then transferred to one well in a black 384-well plate coated with poly-D-lysine, and stained actin bundles or F-actin would stick onto the poly-D-lysine plates. After the plates were thoroughly washed with 1×PBS for 3 times, the plate was imaged using an ImageXpress Micro High Content Screening System (Molecular devices). The images were processed and analyzed using MetaMorph software. The raw image data for each well was background-corrected by subtraction of the median intensities across all wells on the plate. The background-corrected data was used to compute the bundle length for each well. The negative control wells were employed for quality control: multiple DMSO-only control wells (16 wells/plate) were present on each assay plate.

| SMILES | inhibition at 50 µM [%] |
| --- | --- |
| Cc1ccc(-c2nn(Cc3ccc(C(F)(F)F)cc3)c3ccccc23)o1 [Compound 146, 3-(5-methylfuran-2-yl)-1-(4-(trifluoromethyl)benzyl)-1H-indazole] | 10 |
| Cc1nocc1C(=O)Nc1nn(Cc2ccc(C(F)(F)F)cc2)c2cc(C(F)(F)F)ccc12 [Compound 108] | < 10 |
| Cc1occc1C(=O)Nc1nn(Cc2ccc(C(F)(F)F)nc2)c2ccc(C#N)cc12 [Compound 100, N-(5-cyano-1-((6-(trifluoromethyl)pyridin-3 - yl)methyl)-1H-indazol-3-yl)-2-methylfuran-3-carboxamide] | < 10 |
| O=C(Nc1nn(Cc2ccccc2)c2ccccc12)c1ccoc1 [Compound 58, N-(1-benzyl-1H-indazol-3-yl)furan-3-carboxamide] | < 10 |
| Nc1nn(Cc2ccc(CO)cc2)c2ccccc12 [Compound 103, (4-((3-amino-1H-indazol-1-yl)methyl)phenyl)methanol] | < 10 |
| N#Cc1ccc2c(c1)c(NC(=O)c1cccnn1)nn2Cc1ccc(C(F)(F)F)nc1 [N-(5-cyano-1-((6-(trifluoromethyl)pyridin-3-yl)methyl)-1H-indazol-3-yl)pyridazine-3-carboxamide] | < 10 |
| O=C(Nc1nn(Cc2ccc(C(F)(F)F)cc2)c2c(C(F)(F)F)cccc12)c1ccoc1 [Compound 112, N-(7-(trifluoromethyl)-1-(4-(trifluoromethyl)benzyl)-1H-indazol-3-yl)furan-3-carboxamide] | < 10 |
| Cc1occc1C(=O)Nc1nn(Cc2ccc(C(F)(F)F)cc2)c2ccc(C(F)(F)F)cc12 [Compound 125, 2-methyl-N-(5-(trifluoromethyl)-1-(4-(trifluoromethyl)benzyl)-1H-indazol-3-yl)furan-3-carboxamide] | < 10 |
| Cc1ccc2c(N)nn(Cc3ccc(C(F)(F)F)cc3)c2n1 [Compound 131, 6-methyl-1-(4-(trifluoromethyl)benzyl)-1H-pyrazolo[3,4-b]pyridin-3-amine] | < 10 |
| Cc1nocc1C(=O)Nc1nn(Cc2ccc(C(F)(F)F)cc2)c2ccc(C(F)(F)F)cc12 [Compound 124, 3-methyl-N-(5-(trifluoromethyl)-1-(4-(trifluoromethyl)benzyl)-1H-indazol-3-yl)isoxazole-4-carboxamide] | < 10 |
| N#Cc1ccc(Cn2nc(N)c3ccccc32)cc1 [Compound 84, 4-((3-amino-1H-indazol-1-yl)methyl)benzonitrile] | < 10 |
| O=C(Nc1n[nH]c2ccccc12)c1ccoc1 [Compound 62, N-(1H-indazol-3-yl)furan-3 carboxamide] | < 10 |
| CC(C)C(=O)Nc1nn(Cc2ccc(C(F)(F)F)cc2)c2cncc(Cl)c12 [Compound 152, N-(4-chloro-1-(4-(trifluoromethyl)benzyl)-1H-pyrazolo[3,4-c]pyridin-3-yl)isobutyramide] | 100 |
| N#Cc1ccc(Cn2nc(NC(=O)c3cccnn3)c3ccccc32)cc1 [Compound 90, N-(1-(4-cyanobenzyl)-1H-indazol-3-yl)pyridazine-3-carboxamide] | < 10 |
| Cc1occc1C(=O)Nc1nn(Cc2ccc(C#N)cc2)c2ccccc12 [Compound 88, N-(1-(4-cyanobenzyl)-1H-indazol-3-yl)-2-methylfuran-3-carboxamide] | < 10 |
| CC(=O)Nc1nn(Cc2ccc(C(F)(F)F)cc2)c2cncc(Cl)c12 [Compound 150, N-(1-(4-(trifluoromethyl)benzyl)-4-chloro-1H-pyrazolo(3,4-c)pyridyl)-3-acetamide] | 10 |

Further lines, results first:

| inhibition at 50 µM [%] | SMILES |
| --- | --- |
| < 10 | COc1cscc1C(=O)Nc1nn(Cc2ccc(C(F)(F)F)cc2)c2ccccc12 [Compound 51, 4-methoxy-N-(1-(4-(trifluoromethyl)benzyl)-1H-indazol-3-yl)thiophene-3-carboxamide] |
| < 10 | O=C(Nc1nn(Cc2ccc(C(F)(F)F)cc2)c2cccc(Cl)c12)c1ccoc1 [Compound 117, N-(4-chloro-1-(4-(trifluoromethyl)benzyl)-1H-indazol-3-yl)furan-3-carboxamide] |
| 10 | FC(F)(F)c1ccc(Cn2nc(-c3ccccc3)c3ccccc32)cc1 [Compound 144, 3-Phenyl-1-(4-(trifluoromethyl)benzyl)-1H-indazole] |
| < 10 | Cc1scnc1C(=O)Nc1nn(Cc2ccc(C(F)(F)F)cc2)c2ccccc12 [Compound 32, 5-methyl-N-(1-(4-(trifluoromethyl)benzyl)-1H-indazol-3-yl)thiazole-4-carboxamide] |
| 10 | FC(F)(F)c1ccc(Cn2nc(-c3ccoc3)c3ccccc32)cc1 [Compound 147, 3-(furan-3-yl)-1-(4-(trifluoromethyl)benzyl)-1H-indazole] |
| < 10 | O=C(Nc1nn(Cc2ccc(C(F)(F)F)cc2)c2ccccc12)c1sccc1F [Compound 37, 3-fluoro-N-(1-(4-(trifluoromethyl)benzyl)-1H-indazol-3-yl)thiophene-2-carboxamide] |
| < 10 | O=C(Nc1cn(Cc2ccc(C(F)(F)F)cc2)c2ccccc12)c1ccoc1 [Compound 105, N-(1-(4-(trifluoromethyl)benzyl)-1H-indol-3-yl)furan-3-carboxamide] |
| 50 | O=C(Nc1nn(Cc2ccc(C(F)(F)F)cc2)c2ccccc12)c1ccsn1 [Compound 39, N-(1-(4-(trifluoromethyl)benzyl)-1H-indazol-3-yl)isothiazole-3-carboxamide] |
| 50 | O=C(Nc1nn(Cc2ccc(F)cc2)c2ccccc12)c1ccno1 [Compound 73, N-(1-(4-fluorobenzyl)-1H-indazol-3-yl)isoxazole-5-carboxamide] |
| < 10 | O=C(Nc1nn(Cc2ccc(C(F)(F)F)cc2)c2ccccc12)c1cc2ccccc2o1 [Compound 2, N-(1-(4-(trifluoromethyl)benzyl)-1H-indazol-3-yl)benzofuran-2-carboxamide] |
| < 10 | Cc1cc(C(=O)Nc2nn(Cc3ccc(C(F)(F)F)cc3)c3ccccc23)oc1C [Compound 1, 4,5-dimethyl-N-(1-(4-(trifluoromethyl)benzyl)-1H-indazol-3-yl)furan-2-carboxamide] |
| < 10 | Cc1ccc2c(NC(=O)c3ccoc3)nn(Cc3ccc(C(F)(F)F)cc3)c2n1 [Compound 132, N-(6-methyl-1-(4-(trifluoromethyl)benzyl)-1H-pyrazolo[3,4-b]pyridin-3-yl)furan-3-carboxamide] |
| < 10 | O=C(Nc1nn(Cc2ccc(C(F)(F)F)cc2)c2ccccc12)c1ccccn1 [Compound 55, N-(1-(4-(trifluoromethyl)benzyl)-1H-indazol-3-yl)picolinamide] |
| 90 | O=C(Nc1nn(Cc2ccc(C(F)(F)F)cc2)c2ccccc12)c1cncnc1 [Compound 56, N-(1-(4-(trifluoromethyl)benzyl)-1H-indazol-3-yl)pyrimidine-5-carboxamide] |
| 10 | Cc1ccc(-c2ccc(C(=O)Nc3nn(Cc4ccc(C(F)(F)F)cc4)c4ccccc34)o2)cc1 [Compound 3, 5-(p-tolyl)-N-(1-(4-(trifluoromethyl)benzyl)-1H-indazol-3-yl)furan-2-carboxamide] |

Reference: patent publication US10227345B2, “Compounds and methods for inhibiting fascin” (Cornell University, priority 2014, dated 2019)
